Experimental data: patent US7972793B2, “Methods and compositions for the treatment of psychotic disorders through the identification of the SULT4A1-1 haplotype” (Suregene, LLC, priority 2009, dated 2011)
Read-outs that look alike come from different tables or passages of the source. Marks after values point to notes of the source that are not given here.

How the values were obtained:
[1] = system: CATIE patients; assay: Kaplan-Meier survival (no hospitalization event) analysis, SULT4A1-1 negative vs positive; type: in vivo, human; conditions: FIG. 8
Protocol: A Kaplan-Meier survival analysis was performed to determine whether there was a difference between the survival (hospitalization) rates for the SULT4A1-1 negative and SULT4A1-1 positive patient populations treated with each of the atypical antipsychotics. Survival plots model the fraction of the population that survived (i.e., no hospitalization event) as a function of time.

[2] = system: patients, populations not segmented by SULT4A1-1 status; conditions: meta-analysis, Leucht et al. (2009); negative = greater reduction in PANSS; cited from earlier work
[3] = system: patients, unsegmented populations; conditions: Meta-analysis, Leucht et al. (2009); cited from earlier work
[4] = system: CATIE Caucasian subjects; assay: Rate of hospitalization due to exacerbation of psychosis in CATIE by SULT4A1-1 status; type: in vivo, human; conditions: CATIE Phases 1, 2 and/or 3
Text: For this analysis, the inventors assigned a dichotomous value (positive or negative) for hospitalization status to subjects in each phase of the trial based on only the first hospitalization event for a given patient in that phase.

[5] = system: CATIE Caucasian schizophrenia patients; assay: Time to discontinuation for all causes in the CATIE study; type: in vivo, human
Text: The primary endpoint for the CATIE study was time to discontinuation for all causes (Lieberman et al., 2005). Thus the inventors evaluated the effect of SULT41-1 status on this important parameter.

[6] = system: CATIE Phase I non-responders; conditions: CATIE Phase II, LOCF; for Responders (number): decrease PANSS ≧ 20%
[7] = system: patients, unsegmented populations; conditions: first generation antipsychotics; Davis et al. (2003); cited from earlier work
[8] = system: CATIE African American schizophrenia patients; assay: CATIE drug response: change in total PANSS (LOCF), segmented by SULT4A1-1 status, African Americans; type: in vivo, human
Protocol: The design of the CATIE study has been described in detail by others (Lieberman et al., 2005; Stroup et al., 2003). […] A total of 738 subjects consented to provide DNA for genetic study. […] Retrospective genetic analyses, judged to be exempt from human studies requirements by an IRB, were conducted in the current study. All tested patients were studied using well established clinical endpoints comparing baseline, intermediate, and last observation carried forward (LOCF) for the PANSS scores using CATIE data. […] To remove time on drug as a variable for the CATIE trial, analysis was limited to only those patients who were randomized to a different drug following the initial washout period (drug switchers).

[9] = system: CATIE Caucasian schizophrenia patients; assay: CATIE Phase 1 drug response: change in total PANSS (LOCF), drug switchers, segmented by SULT4A1-1 status; type: in vivo, human; conditions: for ≦−20% (number of individuals with this percent change in total PANSS; responders) / ≧−20% (number of individuals with this percent change in total PANSS; non-responders): CATIE Caucasians, LOCF
Text: There are several different metrics for quantifying response in clinical trials of antipsychotic medications. The most commonly used psychometric instrument is the Positive and Negative Syndrome Scale (PANSS), a 30-item semi-quantitative instrument scored by clinical professionals (Kay et al., 1987). The greater the decrease in PANSS score, the better the clinical response. The most direct measure of clinical response is absolute change in PANSS score. In addition to absolute change, the improvement is often reported as a percentage change from baseline PANSS score.
A decrease of at least 20% in total PANSS is one commonly used threshold for response (Leucht et al., 2009).
The design of the CATIE study has been described in detail by others (Lieberman et al., 2005; Stroup et al., 2003). […] A total of 738 subjects consented to provide DNA for genetic study. […] Retrospective genetic analyses, judged to be exempt from human studies requirements by an IRB, were conducted in the current study.
All tested patients were studied using well established clinical endpoints comparing baseline, intermediate, and last observation carried forward (LOCF) for the PANSS scores using CATIE data. LOCF analysis is a commonly used clinical endpoint for clinical trials for neuropsychiatric drugs, with changes in PANSS scores of between negative 20% and negative 30% used as typical endpoints to indicate clinically significant response (Leucht et al., 2009). To remove time on drug as a variable for the CATIE trial, analysis was limited to only those patients who were randomized to a different drug following the initial washout period (drug switchers).
As mentioned previously, the mean change in absolute or percent PANSS provides an important measure of efficacy in patients undergoing antipsychotic treatments. Indeed, many pivotal trials in the psychosis field used absolute and/or percentage change in PANSS Score as the primary endpoint (Leucht et al., 2009). […] Therefore, in addition to examining a categorical definition of clinically significant response, the inventors determined the impact of segmentation by SULT4A1-1 status on the quantitative measure of clinical improvement—delta PANSS.

[10] = Table 16, 20% decrease in PANSS threshold, SULT4A1-1 positive group (sign not given)

In the case of Cc1nc2n(c(=O)c1CCN1CCC(c3noc4cc(F)ccc34)CC1)CCCC2 [Risperidone], the “Difference between survival (no hospitalization) rates of SULT4A1-1 negative and SULT4A1-1 positive patients” value [1] is listed as “not statistically significant”, the “Effect Size vs. Placebo” value [2] is listed as −0.59 and the “Mean Difference in Total PANSS Score, Olanzapine vs. labelled drug” value [3] is listed as −1.9. The “HOSP (number of subjects hospitalized)” value ([4]; SULT4A1-1 Positive) was 4, the “HOSP (rate of hospitalization)” value ([4]; SULT4A1-1 Positive) was “(11.1%)” and the “HOSP (number of subjects hospitalized)” value ([4]; SULT4A1-1 negative) was 16. The “HOSP (rate of hospitalization)” value ([4]; SULT4A1-1 negative) was “(13%)”, the “HOSP (number of subjects hospitalized)” value ([4]; Unsegmented) was 20 and the “HOSP (rate of hospitalization)” value ([4]; Unsegmented) was “(12.6%)”. The “Time to discontinuation, mean time in months” value (shortened to “Time to discontinuation”) ([5]; SULT4A1-1 Negative) was 11.3 Months, the “Time to discontinuation” value ([5]; SULT4A1-1 Positive) was 8.0*** Months and the “Nonresponders (number)” value ([6]; SULT4A1-1 Negative) was 8. The “Responders (number)” value ([6]; SULT4A1-1 Negative) was 4, the “% Responders” value ([6]; SULT4A1-1 Positive) was 0% and the “Nonresponders (number)” value ([6]; SULT4A1-1 Positive) was 1. For the same compound, the “Responders (number)” value ([6]; SULT4A1-1 Positive) was 0, the “Effect Size vs. FGA” value [7] was −0.25 and the “≦−20% (number of individuals; responders)” value ([8]; SULT4A1-1 Negative) was 7. For the same compound, the “≧−20% (number of individuals; non-responders)” value ([8]; SULT4A1-1 Negative) was 34, the “≦−20% (number of individuals; responders)” value ([8]; SULT4A1-1 Positive) was 3 and the “≧−20% (number of individuals; non-responders)” value ([8]; SULT4A1-1 Positive) was 2. For the same compound, the Responders ([8]; SULT4A1-1 Positive, change in total PANSS ≦−20%) was 60%.

In the case of OCCN1CCN(CCCN2c3ccccc3Sc3ccc(Cl)cc32)CC1 [Perphenazine], the “HOSP (number of subjects hospitalized)” value ([4]; SULT4A1-1 Positive) is reported as 1, the “HOSP (number of subjects hospitalized)” value ([4]; SULT4A1-1 negative) is reported as 9 and the “HOSP (number of subjects hospitalized)” value ([4]; Unsegmented) is reported as 10. The “≦−20% (number of individuals with this percent change in total PANSS; responders)” value ([9]; SULT4A1-1 Negative) was 16, the “≧−20% (number of individuals with this percent change in total PANSS; non-responders)” value ([9]; SULT4A1-1 Negative) was 47 and the “≦−20% (number of individuals with this percent change in total PANSS; responders)” value ([9]; SULT4A1-1 Positive) was 5. For the same compound, the “≧−20% (number of individuals with this percent change in total PANSS; non-responders)” value ([9]; SULT4A1-1 Positive) was 9, the “Non Responder (number)” value [9, 10] was 9 and the “Responder (number)” value [9, 10] was 5. The “Time to discontinuation” value ([5]; SULT4A1-1 Positive) was 7.6** Months, the “≦−20% (number of individuals; responders)” value ([8]; SULT4A1-1 Negative) was 10 and the “≧−20% (number of individuals; non-responders)” value ([8]; SULT4A1-1 Negative) was 27. The “≦−20% (number of individuals; responders)” value ([8]; SULT4A1-1 Positive) was 0 and the “≧−20% (number of individuals; non-responders)” value ([8]; SULT4A1-1 Positive) was 2.
